# According to patent US9175003B2, “Substituted azoanthracene derivatives and intermediates for preparation thereof” (TransTech Pharma, LLC, priority 2009, dated 2015):
# Molecular target: human GLP-1 receptor (Homo sapiens (Human), UniProt P43220)
# Details: read-out: Mean EC50; cAMP, HTRF detection, 30 min at 37° C., HEK-293 cells expressing cloned human GLP-1 receptor
# human GLP-1 receptor, sequence (P43220 24-463): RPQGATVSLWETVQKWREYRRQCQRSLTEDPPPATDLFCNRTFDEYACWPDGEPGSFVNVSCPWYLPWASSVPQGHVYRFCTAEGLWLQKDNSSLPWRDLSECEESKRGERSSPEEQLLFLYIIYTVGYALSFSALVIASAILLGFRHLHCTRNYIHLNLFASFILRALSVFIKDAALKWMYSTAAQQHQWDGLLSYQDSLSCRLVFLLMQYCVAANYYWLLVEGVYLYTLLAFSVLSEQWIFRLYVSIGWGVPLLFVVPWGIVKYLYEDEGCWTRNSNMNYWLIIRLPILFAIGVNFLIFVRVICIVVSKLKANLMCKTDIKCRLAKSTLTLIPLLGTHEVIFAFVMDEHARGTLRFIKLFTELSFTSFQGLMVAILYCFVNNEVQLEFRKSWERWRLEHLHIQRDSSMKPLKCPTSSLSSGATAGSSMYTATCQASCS
row,SMILES,EC50 [µM]
1,"Cc1nc(NC(C)C)ccc1S(=O)(=O)N1Cc2cc3c(cc2C[C@H]1C(=O)N[C@@H](Cc1ccc(-c2ccc(C#N)cc2)cc1)C(=O)O)OC[C@H](c1ccc(OCc2ccc(Cl)c(Cl)c2)cc1)O3 [Example 142, (S)-3-(4′-Cyano-biphenyl-4-yl)-2-{[(3S,8S)-3-[4-(3,4-dichloro-benzyloxy)-phenyl]-7-(6-isopropylamino-2-methyl-pyridine-3-sulfonyl)-2,3,6,7,8,9-hexahydro-[1,4]dioxino[2,3-g]isoquinoline-8-carbonyl]-amino}-propionic acid]",0.263
2,"CC[C@@H](c1ccccc1)N1Cc2cc3c(cc2C[C@H]1C(=O)N[C@@H](Cc1ccc(-c2ccc(C)nc2)cc1)C(=O)O)OC[C@H](c1ccc(OCc2ccc(Cl)c(Cl)c2)cc1)O3 [Example 196, (S)-2-{[(3S,8S)-3-[4-(3,4-Dichloro-benzyloxy)-phenyl]-7-((S)-1-phenyl-propyl)-2,3,6,7,8,9-hexahydro-[1,4]dioxino[2,3-g]isoquinoline-8-carbonyl]-amino}-3-[4-(6-methyl-pyridin-3-yl)-phenyl]-propionic acid]",0.127
3,"CC[C@@H](c1ccccc1)N1Cc2cc3c(cc2C[C@H]1C(=O)N[C@@H](Cc1ccc(-c2ccnc(C)c2C)cc1)C(=O)O)OC[C@@H](c1ccc(OCc2ccc(Cl)c(Cl)c2)cc1)O3 [Example 430, (S)-2-{[(3R,8S)-3-[4-(3,4-Dichloro-benzyloxy)-phenyl]-7-((S)-1-phenyl-propyl)-2,3,6,7,8,9-hexahydro-[1,4]dioxino[2,3-g]isoquinoline-8-carbonyl]-amino}-3-[4-(2,3-dimethyl-pyridin-4-yl)-phenyl]-propionic acid]",0.012
4,"Cc1nc(N)ccc1S(=O)(=O)N1Cc2cc3c(cc2C[C@H]1C(=O)N[C@@H](Cc1ccc(-c2ccc(C#N)cc2)cc1)C(=O)O)OC[C@H](c1ccc(OCc2ccc(Cl)c(Cl)c2)cc1)O3 [Example 141, (S)-2-({(3S,8S)-7-(6-Amino-2-methyl-pyridine-3-sulfonyl)-3-[4-(3,4-dichloro-benzyloxy)-phenyl]-2,3,6,7,8,9-hexahydro-[1,4]dioxino[2,3-g]isoquinoline-8-carbonyl}-amino)-3-(4′-cyano-biphenyl-4-yl)-propionic acid]",0.315
5,"CC[C@@H](c1ccccc1)N1Cc2cc3c(cc2C[C@H]1C(=O)N[C@@H](Cc1ccc(-c2ccnc(C)c2C)cc1)C(=O)O)OC[C@H](c1ccc(OCC(C)C)cc1)O3 [Example 172, (S)-3-[4-(2,3-Dimethyl-pyridin-4-yl)-phenyl]-2-{[(3S,8S)-3-(4-isobutoxy-phenyl)-7-((S)-1-phenyl-propyl)-2,3,6,7,8,9-hexahydro-[1,4]dioxino[2,3-g]isoquinoline-8-carbonyl]-amino}-propionic acid]",0.132
6,"CC[C@@H](c1ccccc1)N1Cc2cc3c(cc2C[C@H]1C(=O)N[C@@H](Cc1ccc(-c2ccnn2C)cc1)C(=O)O)OC[C@H](c1ccc(OCc2ccc(Cl)c(Cl)c2)cc1)O3 [Example 191, (S)-2-{[(3S,8S)-3-[4-(3,4-Dichloro-benzyloxy)-phenyl]-7-((S)-1-phenyl-propyl)-2,3,6,7,8,9-hexahydro-[1,4]dioxino[2,3-g]isoquinoline-8-carbonyl]-amino}-3-[4-(2-methyl-2H-pyrazol-3-yl)-phenyl]-propionic acid]",0.066
7,"Cc1ccc(C(=O)N2Cc3cc4c(cc3C[C@H]2C(=O)N[C@@H](Cc2ccc(-c3ccnc(C)c3C)cc2)C(=O)O)OC[C@H](c2ccc(OCc3ccc(Cl)c(Cl)c3)cc2)O4)cc1 [Example 158, (S)-2-{[(3S,8S)-3-[4-(3,4-Dichloro-benzyloxy)-phenyl]-7-(4-methyl-benzoyl)-2,3,6,7,8,9-hexahydro-[1,4]dioxino[2,3-g]isoquinoline-8-carbonyl]-amino}-3-[4-(2,3-dimethyl-pyridin-4-yl)-phenyl]-propionic acid]",0.146
8,"CCNc1ccc(S(=O)(=O)N2Cc3cc4c(cc3C[C@H]2C(=O)N[C@@H](Cc2ccc(-c3ccc(C#N)cc3)cc2)C(=O)O)OCC(c2ccc(OCc3ccc(Cl)c(Cl)c3)cc2)O4)c(C)n1 (stereo in doubt) [Example 135, (S)-3-(4′-Cyano-biphenyl-4-yl)-2-{[(S)-3-[4-(3,4-dichloro-benzyloxy)-phenyl]-7-(6-ethylamino-2-methyl-pyridine-3-sulfonyl)-2,3,6,7,8,9-hexahydro-[1,4]dioxino[2,3-g]isoquinoline-8-carbonyl]-amino}-propionic acid]",0.284
9,"Cc1nc(N2CCOCC2)ccc1S(=O)(=O)N1Cc2cc3c(cc2C[C@H]1C(=O)N[C@@H](Cc1ccc(-c2ccc(C#N)cc2)cc1)C(=O)O)OCC(c1ccc(OCc2ccc(Cl)c(Cl)c2)cc1)O3 (stereo in doubt) [Example 133, (S)-3-(4′-Cyano-biphenyl-4-yl)-2-{[(S)-3-[4-(3,4-dichloro-benzyloxy)-phenyl]-7-(2-methyl-6-morpholin-4-yl-pyridine-3-sulfonyl)-2,3,6,7,8,9-hexahydro-[1,4]dioxino[2,3-g]isoquinoline-8-carbonyl]-amino}-propionic acid]",0.054
10,"CC(=O)N1CC(c2ccc(OCc3ccc(Cl)c(Cl)c3)cc2)Oc2cc3c(cc21)C[C@@H](C(=O)N[C@@H](Cc1ccc(-c2ccc(C#N)cc2)cc1)C(=O)O)N(C(=O)c1ccccc1)C3 (stereo in doubt) [Example 53, (S)-2-({(S)-1-Acetyl-6-benzoyl-3-[4-(3,4-dichloro-benzyloxy)-phenyl]-2,3,5,6,7,8-hexahydro-1H-4-oxa-1,6-diaza-anthracene-7-carbonyl}-amino)-3-(4′-cyano-biphenyl-4-yl)-propionic acid]",0.38

# More lines, now with the values ahead:
row,EC50 [µM],SMILES
1,0.313,"Cc1nc(C(=O)N2Cc3cc4c(cc3C[C@H]2C(=O)N[C@@H](Cc2ccc(-c3ccnc(C)c3C)cc2)C(=O)O)OC[C@H](c2ccc(O[C@H]3CC[C@@H](C)CC3)cc2)O4)c(C)o1 [Example 381, (S)-2-({(3S,8S)-7-(2,5-Dimethyl-oxazole-4-carbonyl)-3-[4-(cis-4-methyl-cyclohexyloxy)-phenyl]-2,3,6,7,8,9-hexahydro-[1,4]dioxino[2,3-g]isoquinoline-8-carbonyl}-amino)-3-[4-(2,3-dimethyl-pyridin-4-yl)-phenyl]-propionic acid]"
2,0.315,"Cc1nccc(Oc2ccc(C[C@H](NC(=O)[C@@H]3Cc4cc5c(cc4CN3C(=O)NC3CCC3)O[C@@H](c3ccc(OCc4ccc(Cl)c(Cl)c4)cc3)CO5)C(=O)O)cc2)c1C [Example 347, (S)-2-({(3S,8S)-7-Cyclobutylcarbamoyl-3-[4-(3,4-dichloro-benzyloxy)-phenyl]-2,3,6,7,8,9-hexahydro-[1,4]dioxino[2,3-g]isoquinoline-8-carbonyl}-amino)-3-[4-(2,3-dimethyl-pyridin-4-yloxy)-phenyl]-propionic acid]"
3,0.317,"Cc1nccc(-c2ccc(C[C@H](NC(=O)[C@@H]3Cc4cc5c(cc4CN3C(=O)Nc3cc(F)cc(F)c3)O[C@@H](c3ccc(OCc4ccc(Cl)c(Cl)c4)cc3)CO5)C(=O)O)cc2)c1C [Example 255, (S)-2-{[(3S,8S)-3-[4-(3,4-Dichloro-benzyloxy)-phenyl]-7-(3,5-difluoro-phenylcarbamoyl)-2,3,6,7,8,9-hexahydro-[1,4]dioxino[2,3-g]isoquinoline-8-carbonyl]-amino}-3-[4-(2,3-dimethyl-pyridin-4-yl)-phenyl]-propionic acid]"
4,0.109,"Cc1nccc(Oc2ccc(C[C@H](NC(=O)[C@@H]3Cc4cc5c(cc4CN3C(=O)NC3(C)CCC3)O[C@@H](c3ccc(OCc4ccc(Cl)c(Cl)c4)cc3)CO5)C(=O)O)cc2)c1C [Example 351, (S)-2-{[(3S,8S)-3-[4-(3,4-Dichloro-benzyloxy)-phenyl]-7-(1-methyl-cyclobutylcarbamoyl)-2,3,6,7,8,9-hexahydro-[1,4]dioxino[2,3-g]isoquinoline-8-carbonyl]-amino}-3-[4-(2,3-dimethyl-pyridin-4-yloxy)-phenyl]-propionic acid]"
5,0.377,"Cc1ccccc1NC(=O)N1Cc2cc3c(cc2C[C@H]1C(=O)N[C@@H](Cc1ccc(Oc2ccnc(C)c2C)cc1)C(=O)O)OC[C@H](c1ccc(OCc2ccc(Cl)c(Cl)c2)cc1)O3 [Example 338, (S)-2-({(3S,8S)-3-[4-(3,4-Dichloro-benzyloxy)-phenyl]-7-o-tolylcarbamoyl-2,3,6,7,8,9-hexahydro-[1,4]dioxino[2,3-g]isoquinoline-8-carbonyl}-amino)-3-[4-(2,3-dimethyl-pyridin-4-yloxy)-phenyl]-propionic acid]"
6,0.073,"Cc1nccc(-c2ccc(C[C@H](NC(=O)[C@@H]3Cc4cc5c(cc4CN3C(=O)N3CCCC3)O[C@@H](c3ccc(OCc4ccc(Cl)c(Cl)c4)cc3)CO5)C(=O)O)cc2)c1C [Example 313, (S)-2-{[(3S,8S)-3-[4-(3,4-Dichloro-benzyloxy)-phenyl]-7-(pyrrolidine-1-carbonyl)-2,3,6,7,8,9-hexahydro-[1,4]dioxino[2,3-g]isoquinoline-8-carbonyl]-amino}-3-[4-(2,3-dimethyl-pyridin-4-yl)-phenyl]-propionic acid]"
7,0.132,"Cc1cc(C(=O)N2Cc3cc4c(cc3C[C@H]2C(=O)N[C@@H](Cc2ccc(Oc3ccnc(C)c3C)cc2)C(=O)O)OC[C@H](c2ccc(OCc3ccc(Cl)c(Cl)c3)cc2)O4)n(C)n1 [Example 266, (S)-2-{[(3S,8S)-3-[4-(3,4-Dichloro-benzyloxy)-phenyl]-7-(2,5-dimethyl-2H-pyrazole-3-carbonyl)-2,3,6,7,8,9-hexahydro-[1,4]dioxino[2,3-g]isoquinoline-8-carbonyl]-amino}-3-[4-(2,3-dimethyl-pyridin-4-yloxy)-phenyl]-propionic acid]"
8,0.142,"Cc1cc(C(=O)N2Cc3cc4c(cc3C[C@H]2C(=O)N[C@@H](Cc2ccc(-c3ccnc(C)c3C)cc2)C(=O)O)OC[C@H](c2ccc(OCc3ccc(Cl)c(Cl)c3)cc2)O4)n(C)n1 [Example 270, (S)-2-{[(3S,8S)-3-[4-(3,4-Dichloro-benzyloxy)-phenyl]-7-(2,5-dimethyl-2H-pyrazole-3-carbonyl)-2,3,6,7,8,9-hexahydro-[1,4]dioxino[2,3-g]isoquinoline-8-carbonyl]-amino}-3-[4-(2,3-dimethyl-pyridin-4-yl)-phenyl]-propionoc acid]"
